Consider 48 compounds from paper PMC3199943, “Screening the MayBridge Rule of 3 Fragment Library for Compounds That Interact with the Trypanosoma brucei myo-Inositol-3-Phosphate Synthase and/or Show Trypanocidal Activity” (Molecular Biology International, 2011).

Where a name gives a salt, the structure may show the parent alone. Read-outs that look alike come from different tables or passages of the source.

The subject of one experiment is HeLa cells. Nature of the experiment: cells. Conditions: for viability at 500 µM: Homo sapiens, HeLa, 65 h. The procedure, abridged:
(§1)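 Seed HeLa/A549 at 2 × 10^4 cells/well in DMEM/10% FCS/2 mM L-Gln; treat ~65 h; add Alamar Blue, 5 h more.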

A further experiment has as its system A549 cells. In words: Cytotoxicity against A549 cells, Alamar Blue. The class given is cell-based. The note with it: for viability at 500 µM: Homo sapiens, A549, 65 h. An outline of the steps:
as §1

The mark [1] stands for this setting: read-out: HeLa Cells Alamar Blue.
[2] abbreviates: Supplementary Table 1, compound 0.5 mM, percentage of controls (n=1).
Where [3] appears, read: Supplementary Table 1, compound 0.5 mM, percentage of controls, mean ± SD (n=3) or SE (n=2).
Where [4] appears, read: read-out: HeLa Cells Alamar Blue, Supplementary Table 1, compound 0.5 mM, percentage of controls, mean ± SD (n=3) or SE (n=2).

As to `Nc1nc(-c2ccccc2)ns1` [compound 423, 3‐phenyl‐1,2,4‐thiadiazol‐5‐amine], the values for the viability at 500 µM in the experiment with HeLa cells (setting [1]) and with A549 cells (setting [2]) were 82.7 ± 3.9% and 52.7%, respectively.

Take `Nc1nsc(-c2ccccc2)n1` [compound 424, 5‐phenyl‐1,2,4‐thiadiazol‐3‐amine]: the viability at 500 µM with HeLa cells (setting [1]) is 62.2 ± 15.4%; with A549 cells (setting [2]) it was 60.1%.

As for `CCCc1ccc(NC(C)=O)cc1` [compound 426, N1‐(4‐propylphenyl)acetamide], the viability at 500 µM in the experiment with HeLa cells (setting [1]) came out at 89.8 ± 10.8%; with A549 cells (setting [2]), 71.7%.

`Nc1ccccc1N1CCNCC1` [compound 429, 2‐piperazin‐1‐ylaniline]: the viability at 500 µM in the experiment with HeLa cells (setting [1]) was 78.5 ± 7.7%; with A549 cells (setting [2]), 54.3%.

As for `O=C(O)C1COc2ccccc2C1` (stereo not drawn) [compound 431, 3‐chromanecarboxylic acid], the viability at 500 µM with HeLa cells (setting [1]) was 102 ± 5.9%; in the experiment on A549 cells (setting [2]), 95.8%.

`O=C(O)c1csc2ccccc12` [compound 432, 1‐benzothiophene‐3‐carboxylic acid]: the results for the viability at 500 µM in the experiment with HeLa cells (setting [1]) and in the experiment on A549 cells (setting [2]) were 88.5 ± 12.2% and 55.1%, respectively.

For the compound `CC1(C)Cc2cccc(CO)c2O1` [compound 434, (2,2‐dimethyl‐2,3‐dihydro‐1‐benzofuran‐7‐yl)methanol], in the experiment on HeLa cells (setting [3]), the “HeLa Cells Alamar Blue” value is listed as 80.2 ± 12 percentage of controls. For the same compound, the “A549 Cells Alamar Blue” value in the experiment on A549 cells (setting [2]) was 51.1 percentage of controls.

For the compound `Nc1ccc(N2CCOCC2)cc1` [compound 435, 4‐morpholinoaniline], the viability at 500 µM in the experiment with HeLa cells (setting [1]) came out at 10.2 ± 6.9%; with A549 cells (setting [2]), 33.5%.

On to `Nc1ccccc1N1CCOCC1` [compound 436, 2‐morpholinoaniline], for which the viability at 500 µM came out at 79.1 ± 5.8% in the experiment on HeLa cells (setting [1]) and 56.4% in the experiment with A549 cells (setting [2]).

As for `OCc1ccc(N2CCCC2)nc1` [compound 437, [6‐(1‐pyrrolidinyl)‐3‐pyridinyl]methanol], the viability at 500 µM in the experiment on HeLa cells (setting [1]) stood at 9.3 ± 4.8%; in the experiment with A549 cells (setting [2]), 44.3%.

On to `OCc1ccnc(N2CCCC2)c1` [compound 438, (2‐pyrrolidin‐1‐ylpyrid‐4‐yl)methanol], for which the viability at 500 µM with HeLa cells (setting [1]) was found to be 103 ± 14.9%; in the experiment with A549 cells (setting [2]), 71.9%.

For `CC(C)(C)C(=O)Nc1ccncc1` [compound 439, 2,2‐dimethyl‐N‐(4‐pyridinyl)propanamide], the viability at 500 µM with HeLa cells (setting [1]) worked out at 54.6 ± 4.5%; in the experiment on A549 cells (setting [2]) it was 65%.

`Cc1ccc2sc(CO)cc2c1` [compound 442, 5‐Methylbenzo[b]thiophene‐2‐methanol]: the results for the viability at 500 µM in the experiment with HeLa cells (setting [1]) and in the experiment with A549 cells (setting [2]) were 71.3 ± 3.5% and 53.7%, respectively.

For the compound `CCN(CC)CCc1ccccn1` [compound 443, N,N‐diethyl‐N‐[2‐(2‐pyridyl)ethyl]amine], the viability at 500 µM in the experiment on HeLa cells (setting [1]) was 90.9 ± 9.8%; in the experiment with A549 cells (setting [2]), 49.2%.

As for `CCOC(=O)Cc1ccc(N)cc1` [compound 446, ethyl 2‐(4‐aminophenyl)acetate], the viability at 500 µM with HeLa cells (setting [1]) is 80.1 ± 14.8%; in the experiment on A549 cells (setting [2]), 63.2%.

Consider `Oc1cccc(N2CCOCC2)c1` [compound 447, 3‐morpholinophenol], for which the viability at 500 µM in the experiment with HeLa cells (setting [1]) was 77.8 ± 11.8%; with A549 cells (setting [2]) it was 62.8%.

Regarding `Oc1ccccc1N1CCOCC1` [compound 448, 2‐morpholinophenol], the viability at 500 µM came to 93.3 ± 6.7% in the experiment with HeLa cells (setting [1]) and 71.1% in the experiment with A549 cells (setting [2]).

Consider `COC(=O)Cc1cccc(OC)c1` [compound 451, methyl 2‐(3‐methoxyphenyl)acetate], for which the viability at 500 µM was determined as 101 ± 9.6% with HeLa cells (setting [1]) and 93.2% in the experiment on A549 cells (setting [2]).

As for `COc1ccccc1CCC(=O)O` [compound 452, 3‐(2‐methoxyphenyl)propanoic acid], the viability at 500 µM in the experiment on HeLa cells (setting [1]) was 97.3 ± 7.2%; in the experiment on A549 cells (setting [2]) it was 61.6%.

Regarding `OCc1ccc2c(c1)OCCCO2` [compound 453, 3,4‐dihydro‐2H‐1,5‐benzodioxepin‐7‐ylmethanol], the “HeLa Cells Alamar Blue” value with HeLa cells (setting [3]) was 86.6 ± 3.2 percentage of controls. In the experiment with A549 cells (setting [2]), the “A549 Cells Alamar Blue” value is 51.6 percentage of controls.

In the case of `N#Cc1ccc(-c2ccccc2)nc1` [compound 456, 6‐phenylnicotinonitrile], the viability at 500 µM came out at 33.9 ± 6.9% in the experiment on HeLa cells (setting [1]) and 67.1% in the experiment on A549 cells (setting [2]).

For `Fc1ccc(N2CCNCC2)cc1` [compound 457, 1‐(4‐fluorophenyl)piperazine], the viability at 500 µM in the experiment with HeLa cells (setting [1]) was 12.7 ± 10.1%; in the experiment on A549 cells (setting [2]), 74.7%.

Consider `OCc1cc(-c2cccs2)[nH]n1` [compound 459, (5‐thien‐2‐yl‐1H‐pyrazol‐3‐yl)methanol], for which the viability at 500 µM in the experiment with HeLa cells (setting [1]) was determined as 27.8 ± 10.9%; in the experiment with A549 cells (setting [2]) it was 85%.

With `Nc1cccc(N)c1` [compound 461, benzene‐1,3‐diamine dihydrochloride], the viability at 500 µM was 106 ± 10.7% with HeLa cells (setting [4]) and 91.8% in the experiment on A549 cells (setting [2]).

In the case of `OCc1cc(-c2cccs2)on1` [compound 462, [5‐(2‐thienyl)‐3‐isoxazolyl]methanol], the viability at 500 µM was 75.6 ± 5.9% in the experiment on HeLa cells (setting [1]) and 76.2% in the experiment on A549 cells (setting [2]).

As for `COC(=O)c1cc2ccsc2[nH]1` [compound 463, methyl 6H‐thieno[2,3‐b]pyrrole‐5‐carboxylate], the “HeLa Cells Alamar Blue” value in the experiment with HeLa cells (setting [3]) was 101.3 ± 11 percentage of controls. In addition, in the experiment with A549 cells (setting [2]), the “A549 Cells Alamar Blue” value was 59.7 percentage of controls.

With `Cn1c(C(=O)O)cc2sccc21` [compound 464, 4‐methyl‐4H‐thieno[3,2‐b]pyrrole‐5‐carboxylic acid], the “HeLa Cells Alamar Blue” value in the experiment on HeLa cells (setting [3]) was 93.5 ± 4.2 percentage of controls. In addition, the “A549 Cells Alamar Blue” value in the experiment on A549 cells (setting [2]) is given as 89.4 percentage of controls.

As to `O=C(O)CSCc1ccccc1` [compound 465, 2‐(benzylthio)acetic acid], the viability at 500 µM in the experiment with HeLa cells (setting [1]) stood at 99 ± 9.3%; in the experiment with A549 cells (setting [2]), 67.9%.

Consider `COC(=O)CSc1ccccc1` [compound 466, methyl 2‐(phenylthio)acetate], for which the figures for the viability at 500 µM in the experiment on HeLa cells (setting [1]) and in the experiment on A549 cells (setting [2]) were 102 ± 4.8% and 84.7%, respectively.

For the compound `O=C(C1CCCNC1)N1CCCC1` (stereo not drawn) [compound 468, 3‐piperidinyl(1‐pyrrolidinyl)methanone], the viability at 500 µM in the experiment on HeLa cells (setting [1]) was determined as 110 ± 13.3%; in the experiment on A549 cells (setting [2]), 80.7%.

On to `O=C(C1CCNCC1)N1CCCC1` [compound 469, 4‐piperidinyl(1‐pyrrolidinyl)methanone], for which the viability at 500 µM was 99.5 ± 8.7% in the experiment on HeLa cells (setting [1]) and 86.1% in the experiment on A549 cells (setting [2]).

As for `NC(=S)CSc1ccccc1` [compound 472, 2‐(phenylthio)ethanethioamide], the viability at 500 µM in the experiment with HeLa cells (setting [1]) stood at 76.5 ± 11.2%; with A549 cells (setting [2]), 86%.

Turning to `CC(=O)Nc1ccc(Cl)cc1C` [compound 473, 4‐chloro‐2‐methylacetanilide], the viability at 500 µM with HeLa cells (setting [1]) worked out at 109 ± 11.9%; in the experiment with A549 cells (setting [2]), 76.1%.

Turning to `Cl.Cl.NCCc1c[nH]cn1` [compound 475, 2‐(1H‐imidazol‐4‐yl)ethylamine dihydrochloride], in the experiment on HeLa cells, the “HeLa Cells Alamar Blue” value came out at 95.9 ± 6.6. For the same compound, in the experiment on A549 cells, the “A549 Cells Alamar Blue” value was found to be 80.3.

For `O=C1CSC(c2cccs2)C1` (stereo not drawn) [compound 482, 5‐(2‐thienyl)tetrahydrothiophen‐3‐one], the viability at 500 µM in the experiment with HeLa cells (setting [1]) was found to be 116 ± 6.7%; in the experiment on A549 cells (setting [2]), 112%.

As to `OCc1ccc(-c2ccncc2)cc1` [compound 488, (4‐pyrid‐4‐ylphenyl)methanol], the viability at 500 µM with HeLa cells (setting [1]) amounted to 65.5 ± 17.5%; in the experiment with A549 cells (setting [2]), 133%.

For `OCc1ccc(-c2cccnc2)cc1` [compound 489, (4‐pyrid‐3‐ylphenyl)methanol], the values for the viability at 500 µM in the experiment with HeLa cells (setting [1]) and in the experiment on A549 cells (setting [2]) were 66.4 ± 18.8% and 131%, respectively.

`OCc1ccc(-c2ccccn2)cc1` [compound 490, (4‐pyrid‐2‐ylphenyl)methanol]: the viability at 500 µM turned out to be 102 ± 13.5% with HeLa cells (setting [1]) and 118% with A549 cells (setting [2]).

Consider `OCc1cccc(-c2ccncc2)c1` [compound 491, (3‐pyrid‐4‐ylphenyl)methanol], for which the viability at 500 µM in the experiment with HeLa cells (setting [1]) came out at 34.4 ± 13.8%; in the experiment with A549 cells (setting [2]), 66.8%.

As to `OCc1ccc(-c2ccccc2)nc1` [compound 492, (6‐phenyl‐3‐pyridinyl)methanol], the viability at 500 µM in the experiment with HeLa cells (setting [1]) was 78.6 ± 15.6%; with A549 cells (setting [2]), 81.3%.

`CNCc1scc2c1OCCO2` [compound 495, N‐(2,3‐dihydrothieno[3,4‐b][1,4]dioxin‐5‐ylmethyl)‐N‐methylamine]: the “HeLa Cells Alamar Blue” value with HeLa cells (setting [3]) is given as 43.6 ± 17.7 percentage of controls. Moreover, the “A549 Cells Alamar Blue” value in the experiment on A549 cells (setting [2]) is recorded as 96.9 percentage of controls.

For `Cc1cc(N)ccc1C(C)C.Cl` [compound 497, 4‐isopropyl‐3‐methylaniline hydrochloride], the “HeLa Cells Alamar Blue” value in the experiment with HeLa cells (setting [3]) is recorded as 90.1 ± 2.1 percentage of controls. The “A549 Cells Alamar Blue” value in the experiment with A549 cells (setting [2]) is on record as 115.7 percentage of controls.

`Cc1cc(C(F)(F)F)c(C#N)cn1` [compound 498, 6‐methyl‐4‐(trifluoromethyl)nicotinonitrile]: in the experiment with HeLa cells (setting [3]), the “HeLa Cells Alamar Blue” value was 102.9 ± 18.5 percentage of controls. The “A549 Cells Alamar Blue” value with A549 cells (setting [2]) is listed as 107.7 percentage of controls.

Take `FC(F)(F)c1nc2ccccc2[nH]1` [compound 499, 2‐(trifluoromethyl)‐1H‐benzo[d]imidazole]: the results for the viability at 500 µM in the experiment on HeLa cells (setting [1]) and in the experiment with A549 cells (setting [2]) were 82 ± 14.1% and 116%, respectively.

In the case of `N#Cc1ccc(N)cc1C(F)(F)F` [compound 500, 4‐amino‐2‐(trifluoromethyl)benzonitrile], the viability at 500 µM amounted to 51 ± 10.6% in the experiment on HeLa cells (setting [1]) and 72.8% with A549 cells (setting [2]).

In the case of `Oc1ccc(Oc2ccccc2)cc1` [compound 502, 4‐phenoxyphenol], the viability at 500 µM in the experiment on HeLa cells (setting [4]) is 39.6 ± 16.6%; in the experiment with A549 cells (setting [2]), 53.1%.

As to `CC(=O)c1ccc(-n2ccnc2)cc1` [compound 503, 1‐[4‐(1H‐imidazol‐1‐yl)phenyl]‐1‐ethanone], the “HeLa Cells Alamar Blue” value in the experiment on HeLa cells (setting [3]) is on record as 69.7 ± 7.3 percentage of controls. Moreover, in the experiment with A549 cells (setting [2]), the “A549 Cells Alamar Blue” value is given as 94.5 percentage of controls.

In the case of `OCc1cccc(-c2cncnc2)c1` [compound 504, (3‐pyrimidin‐5‐ylphenyl)methanol], the results for the viability at 500 µM with HeLa cells (setting [1]) and in the experiment with A549 cells (setting [2]) were 88.7 ± 9.9% and 88.2%, respectively.
